Reference: patent US20220257601A1, “INHIBITORS OF PRC1 FOR TREATMENT OF CANCER” (Board of Regents, The University of Texas System, priority 2019, published 2022)
Where “and” joins values, the source holds several entries; their conditions need not be identical. Equal entries are not always repeated. Where two headings read alike, the source gives them in different places.

What was measured:
[1] = tested on: PC3 cells; assay: Bone metastasis after intracardiac injection of PC3 cells in male nude mice; type: in vivo, mouse; conditions: for Outgrowth of macroscopic bone lesions (bioluminescent imaging): data not shown
Experimental: (§1) For localized tumor growth assay, cells were resuspended in 100 μl PBS with Matrigel in 1:1 ratio and subcutaneously injected into both rear flanks. The volume of the s.c. xenograft was calculated as V=L×W^2/2, where L and W stand for tumor length and width, respectively. For experimental metastasis assays, cells were resuspended in 100 μl 1×PBS and intracardially injected into the left ventricle with a 26 G tuberculin syringe. For bone colonization, RM1 cells were resuspended 100 μl 1×PBS and injected into the intra-femoral artery. Metastatic burden was detected through non-invasive bioluminescence imaging of experimental animals using an IVIS Spectrum.
(§2) To investigate the effect of drug treatment, compounds or antibodies were delivered twice every week or every three days through i.p. injection except BLZ945, which was delivered orally. Bioluminescence signal was measured using the ROI tool in Living Image 4.4 software (PerkinElmer).
(§3) For bioluminescent imaging, mice were anesthetized and injected with 1.5 mg of D-luciferin retro-orbitally at the indicated times. Animals were imaged in an IVIS® 100 chamber within 5 min after D-luciferin injection, and data were recorded using LIVING IMAGE® software (Xenogen). To measure bone colonization after intracardiac injection, photon flux was calculated by using the ROI tool in the LIVING IMAGE® software. Bone metastases were further confirmed by X-Ray imaging. Mice were anesthetized with ketamine (100 mg/kg) and xylazine (10 mg/kg), placed on digital X ray Film (Scan X) and exposed at 25 kV for 15 s using a Faxitron instrument (Model MX-20; Faxitron Corp. Buffalo, Ill.).
(§4) The tissue sections were deparaffinized with EZPrep buffer (Ventana Medical Systems), antigen retrieval was performed with CC1 buffer (Ventana Medical Systems). Sections were blocked for 30 minutes with Background Buster solution (Innovex), followed by avidin-biotin blocking for 8 minutes (Ventana Medical Systems) (except for slides stained with CD4 and NKp46 antibodies). Sections were incubated with anti-RNF2, anti-BMI1, anti-Ki67, anti-Cleaved Caspase 3, anti-CD11b, anti-CD68, anti-CD8, anti-CD31, anti-B220, anti-FoxP3, anti-CD4, or anti-NKp46 for 5 hours, followed by 60 minutes incubation with biotinylated horse anti-rabbit IgG at 1:200 dilution (for Ki67, Cleaved Caspase 3, CD11b and CD8) or biotinylated goat anti-rat IgG at 1:200 dilution (for CD31, B220 and FoxP3) or biotinylated horse anti-goat IgG at 1:200 dilution (for CD4 and NKp46). The detection was performed with DAB detection kit (Ventana Medical Systems) according to manufacturer instruction. Slides were counterstained with hematoxylin and coverslipped with PERMOUNT™ (Fisher Scientific).

[2] = tested on: Pten^pc−/−Smad4^pc−/− cells; assay: Multi-organ metastasis in FVB/NJ mice inoculated intracardially with Pten pc-/- Smad4 pc-/- cells; type: in vivo, mouse; conditions: for Numbers of TAMs and Tregs in bone lesions: on-treatment staining of bone lesions
Experimental: as §1, §2, §3, §4
For iNOS/CD68 or Arg1/CD68 staining, first, slides were incubated with anti-iNOS or anti-Arg1 for 5 hours, followed by 60 minutes incubation with biotinylated goat anti-rabbit IgG at 1:200 dilution. The detection was performed with Streptavidin-HRP D (part of DABMap kit, Ventana Medical Systems), followed by incubation with Tyramide Alexa Fluor 488 prepared according to manufacturer instruction with predetermined dilutions. Next, sections were incubated with anti-CD68 for 5 hours, followed by 60 minutes incubation with biotinylated goat anti-rabbit IgG at 1:200 dilution. The detection was performed with Streptavidin-HRP D (part of DABMap kit, Ventana Medical Systems), followed by incubation with Tyramide Alexa CF 594 prepared according to manufacturer instruction with predetermined dilutions. After staining slides were counterstained with DAPI for 10 min and coverslipped with MOWIOL®.
At the end point in vivo experiment, blood and bone marrow cells were collected from each mouse and treated with Red Blood Cell lysis buffer for 5 minutes. Cells were then washed once with RPMI supplemented 2% FBS, stained with indicated antibodies and analyzed by FACS.

[3] = target: T1, PRC1 (Homo sapiens, UniProt Q99496); assay: Inhibition of H2Aub (monoubiquitylation of histone H2A) in PC3 cells; type: cell-based
T1 construct: PC3 cells were exposed to drugs for the indicated hours; endogenous in cells; host or cells: PC3 cells
T1 sequence (Q99496 2-336 limits assumed): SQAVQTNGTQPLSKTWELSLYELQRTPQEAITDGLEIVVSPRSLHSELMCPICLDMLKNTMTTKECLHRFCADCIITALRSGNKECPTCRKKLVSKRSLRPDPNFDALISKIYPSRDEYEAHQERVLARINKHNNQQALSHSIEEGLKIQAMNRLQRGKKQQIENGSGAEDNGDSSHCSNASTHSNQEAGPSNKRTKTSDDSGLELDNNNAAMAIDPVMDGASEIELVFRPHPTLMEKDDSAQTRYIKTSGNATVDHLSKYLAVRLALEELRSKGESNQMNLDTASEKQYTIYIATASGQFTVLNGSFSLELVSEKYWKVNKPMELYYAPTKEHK
Experimental: (§5) For immunoblotting, cells were washed with PBS and lysed in RIPA buffer (50 mM Tris-HCl pH 7.4, 150 mM NaCl, 1 mM EDTA, 1% Triton X-100, 1% sodium deoxycholate, and 0.1% SDS) supplemented with protease inhibitors (Calbiochem) and phosphatase inhibitors (PhosSTOP, Roche Life Science). Protein concentrations were measured by using the DC Protein Assay. Total RNA was extracted using the RNeasy Mini kit coupled with RNase-free DNase set (Qiagen) and reverse transcribed with SuperScript III First-Strand Synthesis SuperMix (Invitrogen). cDNA corresponding to approximately 10 ng of starting RNA was used for one reaction. Q-PCR was performed with Taqman Gene Expression Assay (Applied Biosystems). All quantifications were normalized to endogenous GAPDH.
PC3 cells were exposed to drugs for the indicated hours, then harvested using […] EDTA in PBS, and washed once with cold PBS. Nuclear extracts were prepared and histones were extracted using 0.4N sulfuric acid. H2A or ubH2A was measured using the indicated antibodies.

[4] = tested on: PC3 cells; assay: Tumor sphere assay, PC3 cells; type: cell-based, human; conditions: for IC50: Homo sapiens, PC-3, read-out: Inhibition of sphere formation ability normalized to control groups, IC50
Experimental: (§6) Single cell suspensions of LNCaP, DU145, PC3, PC3M or RM1 cells (1,000 cells/ml) were plated on ultra-low attachment plates and cultured in serum-free PrEGM (Lonza) supplemented with 1:50 B27, 20 ng/ml bFGF and 40 ng/ml EGF for 10 days. Tumor spheres were visualized under phase contrast microscope, photographed, and counted. For serial passage, tumor spheres were collected using 70-μm cell strainers and dissociated with ACCUTASE® for 30 min at 37° C. to obtain single-cell suspensions.

[5] = tested on: RM1 cells; assay: Metastasis in C57BL/6 mice injected with RM1 cells; type: in vivo, mouse
Experimental: as §1, §2
For bioluminescent imaging, mice were anesthetized and injected with 1.5 mg of D-luciferin retro-orbitally at the indicated times. Animals were imaged in an IVIS® 100 chamber within 5 min after D-luciferin injection, and data were recorded using LIVING IMAGE® software (Xenogen). To measure bone colonization after intracardiac injection, photon flux was calculated by using the ROI tool in the LIVING IMAGE® software. […]

[6] = tested on: RNF2 target genes (CCL2, CXCL1, LGR5, NTS, ATF3); assay: Quantitative RT-PCR of RNF2 target genes in PC3 or RM1 cells; type: cell-based; conditions: 0.5 and 1.0 μM; compared with RNF2 silencing
Experimental: as §5

[7] = tested on: PC3 cells; assay: Gene expression changes and pathway analysis compared with RNF2 silencing; type: cell-based, human; conditions: compared with 2 and RNF2 silencing; data not shown
Experimental: Data were analyzed in Partek. Total RNAs were isolated from PC3 cells. Libraries were prepared suing the standard methodology from Illumina. Generated libraries were run on a HiSeq2500 system. Raw reads were quality-checked and subsequently mapped to the human genome (hg19) using Tophat2 (2.2.4) using default settings (Langmead and Salzberg, 2012). Differential gene expression was analyzed using the DESeq2 (1.8.1) package in R using default settings (Love et al., 2014). Gene set enrichment analysis (GSEA) (Subramanian et al., 2005) was performed on a pre-ranked gene list that generated based on the gene expression changes between the RNF2 knockdown and control cells. […] Heatmap analysis was performed to show the gene expression patterns between the RNF2 knockdown and control repeats, using heatmap3 R package with ward2 as distance function. Gene expressions in the heatmap were transformed in logarithm scale and normalized accordingly.

[8] = tested on: PC3 cells; assay: Cell growth under standard culture conditions; type: cell-based, human; conditions: concentrations up to 1 μM, data not shown
Experimental: Control and RNF2-silenced PC3 cells were plated at 1×10^3 per well in 96 well plates for 24 hours. After 24 hours, cells were incubated in 0.5 mg/ml MTT (Invitrogen) for 2 h at 37° C. MTT crystals were dissolved in DMSO and absorbance was measured in a plate reader at 540 nm.
The candidate library was provided by the Organic Synthesis Core Facility from MSKCC. The testing concentration of candidate compounds on PC3 cells was 1 μM. RNF2 target gene expression change was used as a readout for the first round screen. Cell viability, tumor sphere formation assay and histone modification change were then used to further confirm the activity of the candidate compound.

[9] = tested on: RM1 cells; assay: Tumor sphere assay, RM1 cells; type: cell-based, mouse; conditions: data not shown
Experimental: as §6

[10] = target: T2, RNF2-PRC1 complex (Homo sapiens, UniProt Q99496); assay: In vitro ubiquitination assay (cell-free system); type: biochemical; conditions: data not shown
T2 construct: RNF2-PRC1 complex was immunoprecipitated from one 15 cm plate of PC3 cells; endogenous in cells; host or cells: PC3 cells (immunoprecipitate)
T2 sequence (Q99496 2-336 limits assumed): T1 sequence (Q99496 2-336 limits assumed)
Experimental: RNF2-PRC1 complex was immunoprecipitated from one 15 cm plate of PC3 cells. After extensive washing, the complex was pre-incubated with drugs at 4° C. for 30 minutes. UBCH5c, E1, were from Boston Biochem. Reactions were performed in 30 μl of ubiquitilation buffer (50 mM Tris, pH 7.5, 2.5 mM MgCl2, 0.5 mM DTT) containing ubiquitin-activating enzyme 100 ng E1, 200 ng UBCH5c, 10 μg ubiquitin, 0.2 mM ATP, 1 μg H2A, and the indicated PNF2-PRC1 complex. After incubated at 37° C. for 60 min, the reactions were then stopped by the addition of Laemmli sample buffer, and proteins were resolved by SDS-PAGE and immunoblotted using H2A antibody.

[11] = bone metastatic sites, Pten/Smad4 and RM1 models
[12] = PC3 cells, read-out: Inhibition of H2Aub normalized to control groups, IC50
[13] = PC3 cells, titration experiments

## CNC(=O)c1cc(Oc2ccc3nc(N[C@@H]4CCCC[C@H]4O)sc3c2)ccn1 [BLZ945, reference compound]
[1]
  Outgrowth of macroscopic bone lesions (bioluminescent imaging): effectively inhibit the outgrowth of macroscopic bone lesions

## O=C1C(=Cc2cccnc2)C(=O)c2ccccc21 [Compound 2, 2-(pyridin-3-ylmethylene)-1H-indene-1,3(2H)-dione, reference compound]
[2]; [11]
  Number of M1-like macrophages: increases the number of M1-like antigen presentation-competent macrophages
[2]; Pten/Smad4 and RM1 models
  Numbers of TAMs and Tregs in bone lesions: suppresses the recruitment of total TAMs
[3]
  Concentration at which PRC1 activity was inhibited, assessed by monoubiquitylation of histone H2A: 25 µM
[3]; [12]
  IC50: 3520 nM
[4]; PC3 cells
  IC50: 1050 nM
[4]; inhibited only at this concentration
  Concentration at which growth of oncospheres was inhibited: 25 µM

## Cc1ccc2c(c1)C1(CCN(CCc3nc(-c4ccccc4)oc3C)CC1)OC(=O)N2 [RS504393, reference compound]
[1]
  Outgrowth of macroscopic bone lesions (bioluminescent imaging): effectively inhibit the outgrowth of macroscopic bone lesions

## Nc1ccc(CCN2C(=O)c3c(F)c(F)c(F)c(F)c3C2=O)cc1 [Compound 1]
[2]; 1 at 10 mg/kg, DCIT = anti-CTLA4 + anti-PD-1
  Multi-organ metastasis (bioluminescent imaging): only inhibited this process
[2]; [11]
  Number of M1-like macrophages: increases the number of M1-like macrophages
  Percentage of M2-like TAMs (CD68 and Arg1/iNOS double staining): dramatically decreases the percentage of M2-like TAMs
[2]; Pten/Smad4 and RM1 models
  Numbers of TAMs and Tregs in bone lesions: reduces the numbers of TAMs and Tregs
[2]; peripheral blood and bone marrow
  Numbers of MDSCs and TAMs (FACS): reduces the numbers of MDSCs and TAMs
[5]; C57BL/6 mice, data not shown
  Outgrowth of bone, brain and liver metastases: inhibited the outgrowth of bone, brain and liver metastases
[5]; treated mice
  FACS analysis of leukocytes from peripheral blood: significant decrease of macrophages and increase of T cells and NK cells
[6]
  Downregulation or upregulation of key PRC1 targets (RT-qPCR): as effectively as silencing of RNF2
[7]
  Gene expression changes in cancer-relevant pathways: changes larger than those caused by 2 and by RNF2 silencing
[3]; [13]
  Inhibition of H2AUb, fold more efficient as compared to 2: > 7.5 fold
[3]; [12]
  IC50: 470 nM
[3]; data not shown
  Inhibition of PRC1 activity relative to 3 (PTC209): more effectively as compared to 3
[3]; inhibitor of RNF2, read-out: Apparent IC50 in cells and on target
  IC50: ~470 nM and ~500 nM
[8]
  Inhibition of cell growth: did not inhibit cell growth
[9]
  Inhibition of tumor sphere: inhibited tumor sphere to a similar extent
[4]; PC3 cells
  IC50: 130 nM
[4]; [13]
  Inhibition of sphere formation, fold more efficient as compared to 2: > 7.5 fold
[10]
  Inhibition of RNF2-mediated H2AUb: inhibited RNF2-mediated H2AUb in a dose-dependent fashion
[1]; 25 mg/kg, treatment from day 7, 2×/week
  Formation of bone metastases: prevented formation of bone metastases
[1]; 25 mg/kg, treatment from day 21, 2 weeks of treatment
  Expansion of bone macrometastases: significant suppression of their expansion
[1]; bone sections of treated mice
  Nuclear H2AUb levels in bone sections (IHC): substantially decreases
  Secretion of CCL2 in the tumor microenvironment (IHC): substantially decreases
